Reference: US10960020B2, “Modulation of PCSK9 and LDLR through DRP1 inhibition” (THE BRIGHAM AND WOMEN'S HOSPITAL, INC., priority 2016, dated 2021)

Test system: PCSK9 secretion in HepG2 cells
Assay: Secreted PCSK9 ELISA, HepG2 media
Type: cell-based, human
Conditions: HepG2, 24 hours; chloroquine 50 μmol/L, Mdivi-1 50 μmol/L, MG132 0.3 μmol/L
Experimental: Pitavastatin and T0901317 were synthesized and provided by Kowa Company, Ltd. (Tokyo, Japan), and treated at a dose of 1 μM in all experiments. […] Mdivi-1 in DMSO vehicle was added at a concentration of 50 μM in all experiments. Mdivi-1 in DMSO vehicle was added to cell culture media in a 50 mL tube, vortexed hard for several minutes and then incubated at 37° C. prior to adding to cells to ensure the compound was fully solubilized.
HepG2 cells were obtained from ATCC (Manassas, Va.), and cultured in EMEM with L-glutamine (ATCC) medium, 1% pen/strep, with and without 10% FBS (Thermo Fisher Scientific, Waltham, Mass.) in 12-well plates (Corning, Durham, N.C.). HepG2 cells were plated at a density of 60-70% prior to treatment to avoid clumping. […] Cell viability was assessed by Trypan Blue exclusion using live/dead cell counting on a Countess™ II LT automated cell counter (Thermo Fisher Scientific).

With `CCN(CC)CCCC(C)Nc1ccnc2cc(Cl)ccc12` (stereo not shown) [chloroquine] the “PCSK9 secretion by ELISA (in words)” value was “increased”.
